Source: ChEMBL document CHEMBL4402569
Active and inactive are the calls of the source. No cut-off for these calls is given here.

How the values were obtained:
H5N1 subtype [1] = assay: Antiviral activity against pseudotyped Influenza A virus H5N1 (Goose/Qinghai/59/05) infected in human A549 cells assessed as inhibition of viral replication at 12.5 uM incubated for 48 hrs by luciferase reporter gene assay relative to control; format: functional; conditions: Goose/Qinghai/59/05, A549, 48 h
H5N1 subtype [2] = assay: Antiviral activity against pseudotyped Influenza A virus H5N1 (Goose/Qinghai/59/05) infected in human A549 cells assessed as inhibition of viral replication at incubated for 48 hrs by luciferase reporter gene assay; format: functional, organism-based; conditions: Goose/Qinghai/59/05, A549, 48 h
Influenza A virus [3] = assay: Antiviral activity against Influenza A virus (A/Puerto Rico/8/1934(H1N1)) infected in MDCK cells incubated for 1 hr and measured after 36 hrs by PR8-PB2 Gaussia luciferase reporter gene assay; format: functional, organism-based
Influenza A virus [4] = assay: Antiviral activity against Influenza A virus (A/Puerto Rico/8/1934(H1N1)) infected in human A549 cells assessed as decrease in viral titer at 1 uM by standard plaque assay; format: functional, organism-based
H5N1 subtype [5] = assay: Antiviral activity against Influenza A virus (A/Viet Nam/1203/2004(H5N1)) infected in human A549 cells assessed as decrease in viral titer at 1 uM by standard plaque assay; format: functional, organism-based
H5N1 subtype [6] = assay: Antiviral activity against Influenza A virus (A/Viet Nam/1203/2004(H5N1)) infected in human A549 cells assessed as decrease in viral titer at 20 uM by standard plaque assay; format: functional
Influenza A virus [7] = assay: Antiviral activity against Influenza A virus (A/Puerto Rico/8/1934(H1N1)) infected in MDCK cells incubated for 1 hr and measured after 36 hrs by PR8-NS1 Gaussia luciferase reporter gene assay; format: functional, organism-based
Influenza A virus [8] = assay: Antiviral activity against Influenza A virus (A/Puerto Rico/8/1934(H1N1)) infected in MDCK cells incubated for 1 hr and measured after 36 hrs in presence of 156 nM Oseltamivir carboxylate by PR8-NS1 Gaussia luciferase reporter gene assay; format: functional, organism-based
[9] = Stability in mouse liver microsomes assessed as compound remaining incubated for 60 mins in presence of NADPH; format: ADME, Microsome; conditions: read-out: Stability
[10] = Stability in human liver microsomes assessed as compound remaining incubated for 60 mins in presence of NADPH; format: ADME, Microsome; conditions: read-out: Stability
CYP3A4 = CYP3A4 (Homo sapiens, UniProt P08684); assay: Inhibition of human CYP3A4; format: ADME
Sequence of CYP3A4 (P08684 whole entry): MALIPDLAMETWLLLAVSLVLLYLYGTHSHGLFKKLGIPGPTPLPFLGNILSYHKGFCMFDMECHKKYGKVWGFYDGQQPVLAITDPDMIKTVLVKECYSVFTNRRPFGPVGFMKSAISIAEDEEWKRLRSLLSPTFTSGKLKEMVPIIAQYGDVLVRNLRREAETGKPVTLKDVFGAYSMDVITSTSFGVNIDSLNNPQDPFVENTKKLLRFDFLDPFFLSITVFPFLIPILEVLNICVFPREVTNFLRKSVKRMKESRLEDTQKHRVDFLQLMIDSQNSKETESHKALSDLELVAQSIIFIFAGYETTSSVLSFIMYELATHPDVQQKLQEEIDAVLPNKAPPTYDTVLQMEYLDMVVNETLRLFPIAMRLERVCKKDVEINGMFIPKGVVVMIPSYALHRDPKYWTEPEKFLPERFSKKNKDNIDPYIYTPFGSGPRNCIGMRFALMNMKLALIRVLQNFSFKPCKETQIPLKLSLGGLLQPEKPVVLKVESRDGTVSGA

CYP2C9 = CYP2C9 (Homo sapiens, UniProt P11712); assay: Inhibition of human CYP2C9; format: ADME
Sequence of CYP2C9 (P11712 whole entry): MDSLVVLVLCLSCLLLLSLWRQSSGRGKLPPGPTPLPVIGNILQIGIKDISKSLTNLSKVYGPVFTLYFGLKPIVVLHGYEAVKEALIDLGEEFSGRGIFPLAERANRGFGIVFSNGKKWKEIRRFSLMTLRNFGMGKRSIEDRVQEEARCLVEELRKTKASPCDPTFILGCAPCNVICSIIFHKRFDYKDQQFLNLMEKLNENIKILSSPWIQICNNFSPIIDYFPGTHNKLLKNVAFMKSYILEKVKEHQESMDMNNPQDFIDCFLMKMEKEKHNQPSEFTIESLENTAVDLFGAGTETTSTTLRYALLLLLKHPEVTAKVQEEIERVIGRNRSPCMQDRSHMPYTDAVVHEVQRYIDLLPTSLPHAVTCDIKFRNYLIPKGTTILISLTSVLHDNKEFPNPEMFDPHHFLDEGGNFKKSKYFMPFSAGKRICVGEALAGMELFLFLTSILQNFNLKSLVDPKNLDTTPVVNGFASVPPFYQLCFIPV

[11] = Selectivity index, ratio of CC50 for MDCK cells to EC50 for antiviral activity against Influenza A virus (A/Puerto Rico/8/1934(H1N1)) infected in MDCK cells by PR8-PB2 Gaussia luciferase reporter gene assay; format: toxicity, cell-based; conditions: dog, read-out: Ratio CC50/EC50
[12] = Ratio of Cmax in BALB/c mouse liver at 50 mg/kg, po to EC50 for antiviral activity against Influenza A virus (A/Puerto Rico/8/1934(H1N1)) infected in MDCK cells by PR8-PB2 Gaussia luciferase reporter gene assay; format: ADME, organism-based; conditions: in vivo
[13] = Cmax in BALB/c mouse plasma at 10 mg/kg, ip; format: ADME, organism-based; design: dose 10 mg/kg, route intraperitoneal
[14] = AUC (0 to 8 hrs) in BALB/c mouse plasma at 10 mg/kg, ip; format: ADME, organism-based; design: time < 8 hr, dose 10 mg/kg, route intraperitoneal; conditions: in vivo
[15] = Half life in BALB/c mouse plasma at 5 mg/kg, iv; format: ADME, organism-based
[16] = Cmax in BALB/c mouse liver at 10 mg/kg, ip; format: ADME, organism-based; design: dose 10 mg/kg, route intraperitoneal
[17] = AUC (0 to 8 hrs) in BALB/c mouse liver at 10 mg/kg, ip; format: ADME, organism-based; design: dose 10 mg/kg, time < 8 hr, route intraperitoneal; conditions: in vivo
[18] = Tmax in BALB/c mouse plasma at 5 mg/kg, iv; format: ADME, organism-based
[19] = Cmax in BALB/c mouse plasma at 5 mg/kg, iv; format: ADME, organism-based; design: dose 5 mg/kg, route intravenous
[20] = AUC (0 to 8 hrs) in BALB/c mouse plasma at 5 mg/kg, iv; format: ADME, organism-based; design: time < 8 hr, dose 5 mg/kg, route intravenous; conditions: in vivo
[21] = Bioavailability in BALB/c mouse plasma at 5 mg/kg, iv; format: ADME, organism-based; conditions: in vivo
[22] = Cmax in BALB/c mouse plasma at 50 mg/kg, po; format: ADME, organism-based; design: dose 50 mg/kg, route oral
[23] = AUC (0 to 8 hrs) in BALB/c mouse plasma at 50 mg/kg, po; format: ADME, organism-based; design: time < 8 hr, dose 50 mg/kg, route oral; conditions: in vivo
[24] = Cmax in BALB/c mouse liver at 50 mg/kg, po; format: ADME, organism-based; design: dose 50 mg/kg, route oral
[25] = AUC (0 to 8 hrs) in BALB/c mouse liver at 50 mg/kg, po; format: ADME, organism-based; design: time < 8 hr, dose 50 mg/kg, route oral; conditions: in vivo

## CC(C)(C)N1CCC(NC(=O)c2ccc(C(F)(F)F)cc2Cl)CC1
H5N1 subtype [1]
  inhibition at 12.5 µM: 99%
H5N1 subtype [2]
  EC50: 240 nM
Influenza A virus [3]
  EC50: 72 nM
Influenza A virus [4]
  inhibition: Active
H5N1 subtype [5]
  inhibition: Active
H5N1 subtype [6]
  inhibition at 20 µM: 100%
Influenza A virus [7]
  EC30: 134 nM
  EC40: 160 nM
  EC50: 187 nM
  EC60: 219 nM
  EC70: 260 nM
  EC80: 321 nM
  EC90: 439 nM
Influenza A virus [8]
  EC30: 35 nM
  EC40: 42 nM
  EC50: 49 nM
  EC60: 57 nM
  EC70: 68 nM
  EC80: 83 nM
  EC90: 114 nM
[9]
  remaining at 1 h: 94%
[10]
  remaining at 1 h: 97%
CYP3A4
  IC50: > 100000 nM
CYP2C9
  IC50: > 100000 nM
[11]
  selectivity ratio: > 100
[12]
  Ratio: 100
[13]
  Cmax: 1140 ng/g
[14]
  AUC: 3282 ng·h/g
[15]
  half-life: 8.84 h
[16]
  Cmax: 24900 ng/g
[17]
  AUC: 66400 ng·h/g
[18]
  Tmax: 1.8 min
[19]
  Cmax: 846 ng/g
[20]
  AUC: 3400 ng·h/g
[21]
  F: 145%
[22]
  Cmax: 7640 ng/g
[23]
  AUC: 23705 ng·h/g
[24]
  Cmax: 70400 ng/g
[25]
  AUC: 292000 ng·h/g
